The text below walks through data of patent publication US20100029615A1, “BENZIMIDAZOLE DERIVATIVES” (priority 2006, published 2010).

Structures can show the parent of a compound that is named as a salt.

T1 sequence (P56726 33-793): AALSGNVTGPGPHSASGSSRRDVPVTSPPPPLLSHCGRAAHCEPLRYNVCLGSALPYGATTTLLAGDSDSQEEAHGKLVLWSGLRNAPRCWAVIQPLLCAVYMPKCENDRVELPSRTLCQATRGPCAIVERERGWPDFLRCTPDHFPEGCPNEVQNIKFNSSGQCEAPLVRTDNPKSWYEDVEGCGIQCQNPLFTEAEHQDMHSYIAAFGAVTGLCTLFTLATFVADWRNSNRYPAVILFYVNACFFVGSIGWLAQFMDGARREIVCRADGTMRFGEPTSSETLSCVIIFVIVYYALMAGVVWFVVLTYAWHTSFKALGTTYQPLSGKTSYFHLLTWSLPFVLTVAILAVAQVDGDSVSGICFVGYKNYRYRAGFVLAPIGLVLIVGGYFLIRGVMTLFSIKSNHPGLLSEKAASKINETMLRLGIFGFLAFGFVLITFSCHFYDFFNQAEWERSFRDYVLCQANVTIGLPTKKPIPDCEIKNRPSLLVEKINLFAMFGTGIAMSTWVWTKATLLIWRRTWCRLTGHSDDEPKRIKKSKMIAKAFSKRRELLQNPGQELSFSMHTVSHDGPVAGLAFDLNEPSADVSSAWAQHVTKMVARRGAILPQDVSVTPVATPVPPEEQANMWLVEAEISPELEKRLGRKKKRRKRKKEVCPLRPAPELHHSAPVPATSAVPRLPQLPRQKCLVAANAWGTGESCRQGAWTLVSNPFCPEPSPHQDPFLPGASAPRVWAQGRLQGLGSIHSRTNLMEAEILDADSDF

The first assay concerns the target T1, SMO (Mus musculus, UniProt P56726).
T1 construct: endogenous in cells; host or cells: C3H10T1/2 (ATCC #CCL-226)
Kind of assay: Smoothened (SMO)/Sonic Hedgehog (SHh) Transient Transcriptional Activation Assay (Gli-luciferase reporter in C3H10T1/2 cells). The assay is classed as cell-based, murine. The note with it: 2 uM test compound, SHh 250 ng/ml, 20 hrs. The gist of the method: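 Luminescence (Dual-Glo) measured after 20 h co-exposure at 37 °C to 250 ng/ml human SHh and compound at 2 uM down to 2 nM final. Cells were C3H10T1/2 carrying a transfected murine 10× Gli response-element luciferase construct with pEGFP, starved 20 h in 0.5% calf serum beforehand.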
On to “N-(3-(6-(Hydroxymethyl)-1-methyl-1H-benzo[d]imidazol-2-yl)cyclohexyl)-2,3-dihydrobenzo[b][1,4]dioxine-6-carboxamide and N-(3-(5-(Hydroxymethyl)-1-methyl-1H-benzo[d]imidazol-2-yl)cyclohexyl)-2,3-dihydrobenzo[b][1,4]dioxine-6-carboxamide [Example 30]”, for which the “SMO % inhibition at 2 uM” value turned out to be 104%.

For the compound “N-((1R,3S)-3-(1H-benzo[d]imidazol-2-yl)cyclohexyl]-2,3-dihydrobenzo[b][1,4]dioxine-6-carboxamide and N-((1S,3R)-3-(1H-benzo[d]imidazol-2-yl)cyclohexyl)-2,3-dihydrobenzo[b][1,4]dioxine-6-carboxamide [Example 2]”, the “SMO % inhibition at 2 uM” value was 84%. In the case of “N-(3-(6-(2-Cyanopropan-2-yl)-1-methyl-1H-benzo[d]imidazol-2-yl)cyclohexyl)-2,3-dihydrobenzo[b)[1,4]dioxine-6-carboxamide and N-(3-(5-(2-cyanopropan-2-yl)-1-methyl-1H-benzo[d]imidazol-2-yl)cyclohexyl)-2,3-dihydrobenzo[b][1,4]dioxine-6-carboxamide [Example 36]”, the “SMO % inhibition at 2 uM” value is on record as 93%.

The same assay, now with this note: C3H 10T1/2, 2 uM test compound, SHh 250 ng/ml, 20 hrs, read-out: SMO % inhibition at 2 uM.
The inhibition is the change of the read-out against control, counted positive when it falls. With `COc1ccc2[nH]c(C3CCCC(NC(=O)c4ccc5c(c4)OCCO5)C3)nc2c1` (centres unmarked) [Example 29, N-(3-(5-Methoxy-1H-benzo[d]imidazol-2-yl)cyclohexyl]-2,3-dihydrobenzo[b][1,4]dioxine-6-carboxamide], the inhibition at 2 µM is 102%.

Take `COCCn1c(C2CCCC(NC(=O)c3ccc4c(c3)OCCO4)C2)nc2ccccc21` (centres unmarked) [Example 16, N-(3-(1-(2-Methoxyethyl)-1H-benzo[d]imidazol-2-yl]cyclohexyl)-2,3-dihydrobenzo[b][1,4]dioxine-6-carboxamide]: the inhibition at 2 µM worked out at 59%. For the compound `COc1cc(OC)cc(C(=O)NC2CCCC(c3nc4ccc(Br)cc4[nH]3)C2)c1` (centres unmarked) [Example 17, N-(3-(5-Bromo-1H-benzo[d]imidazol-2-yl)cyclohexyl)-3,5-dimethoxybenzamide], the inhibition at 2 µM was 103%. Turning to `Cn1c([C@H]2CCC[C@@H](NC(=O)c3ccc4c(c3)OCCO4)C2)nc2ccccc21` [Example 3, N-((1R,3S)-3-(1-methyl-1H-benzo[d]imidazol-2-yl)cyclohexyl)-2,3-dihydrobenzo[b][1,4]dioxine-6-carboxamide], the inhibition at 2 µM came out at 107%.

As for `COc1cc(OC)cc(C(=O)NC2CCCC(c3nc4ccc(C)cc4[nH]3)C2)c1` (centres unmarked) [Example 5, 3,5-dimethoxy-N-[3-(5-methyl-1H-benzo[d]imidazol-2-yl)cyclohexyl)benzamide], the inhibition at 2 µM amounted to 102%. On the same count and under the same terms, next, `COc1cc(OC)cc(C(=O)NC2CCCC(c3nc4cc(NC(=O)C(C)C)ccc4[nH]3)C2)c1` (centres unmarked) [Example 10, N-(3-(5-Isobutyramido-1H-benzo[d]imidazol-2-yl)cyclohexyl)-3,5-dimethoxybenzamide]: 96%.

Still in this assay, the particulars now being: C3H 10T1/2, 2 μM test compound, SHh 250 ng/ml, 20 hrs, read-out: SMO CELL % INHIBITION @ 2 μM.
With `O=C(N[C@@H]1CCC[C@H](c2nc3ccccc3[nH]2)C1)c1n[nH]c2ccccc12` [Example 199, N-[(1R,3S)-3-(1H-benzimidazol-2-yl)cyclohexyl]-1H-indazole-3-carboxamide triflouroacetate], the inhibition at 2 µM turned out to be 67%. Still for that read-out and setting: next, `O=C(Cn1ccc2sccc2c1=O)NC1CCCC(c2nc3ccccc3[nH]2)C1` (centres unmarked) [Example 127, N-[3-(1H-benzimidazol-2-yl)cyclohexyl]-2-(4-oxothieno[3,2-c]pyridin-5(4H)-yl)acetamide HCl]: 100%. With `CN1C(=O)CCc2cc(C(=O)N[C@@H]3CCC[C@H](c4nc5cc(Cl)ccc5[nH]4)C3)ccc21` [Example 305, N-[(1R,3S)-3-(5-chloro-1H-benzimidazol-2-yl)cyclohexyl]-1-methyl-2-oxo-1,2,3,4-tetrahydroquino-line-6-carboxamide (+)-tartrate], the inhibition at 2 µM is 81.2%.

For `O=C(Cc1cn2cc(Cl)ccc2n1)NC1CCCC(c2nc3ccccc3[nH]2)C1` (centres unmarked) [Example 107, N-[3-(1H-benzimidazol-2-yl)cyclohexyl]-2-(6-chloroimidazo[1,2-a]pyridin-2-yl)acetamide triflouroacetate], the inhibition at 2 µM was determined as 79%. `Cn1ccnc1C(=O)NC1CCCC(c2nc3ccccc3[nH]2)C1` (centres unmarked) [Example 164, N-[3-(1H-benzimidazol-2-yl)cyclohexyl]-1-methyl-1H-imidazole-2-carboxamide triflouroacetate]: the inhibition at 2 µM was determined as 106%. The same measure, in the same setting: the value for `Cn1cncc1C(=O)N[C@@H]1CCC[C@H](c2nc3ccccc3[nH]2)C1` [Example 174, N-[(1R,3S)-3-(1H-benzimidazol-2-yl)cyclohexyl]-1-methyl-1H-imidazole-5-carboxamide HCl] was 64%; that for `CN(C)c1ccc2nc(C3CCCC(NC(=O)c4ccc5c(c4)OCCO5)C3)[nH]c2c1` (centres unmarked) [Example 77, N-{3-[6-(dimethylamino)-1H-benzimidazol-2-yl]cyclohexyl}-2,3-dihydro-1,4-benzodioxine-6-carboxamide HCl] was 102%; that for `CCOC(=O)CCCCC(=O)NC1CCCC(c2nc3ccccc3[nH]2)C1` (centres unmarked) [Example 98, ethyl 6-{[3-(1H-benzimidazol-2-yl)cyclohexyl]amino}-6-oxohexanoate trifl;uoroacetate] was 55%. Still for that read-out and setting: the value for `COc1cc(OC)cc(C(=O)N[C@@H]2CCC[C@H](c3nc4ccc(C(F)(F)F)cc4[nH]3)C2)c1` [Example 170, 3,5-dimethoxy-N-{(1R,3S)-3-[6-(trifluoromethyl)-1H-benzimidazol-2-yl]cyclohexyl} benzamide HCl] was 110%; that for `O=C(CN1CCCCCC1=O)NC1CCCC(c2nc3ccccc3[nH]2)C1` (centres unmarked) [Example 112, N-[3-(1H-benzimidazol-2-yl)cyclohexyl]-2-(2-oxoazepan-1-yl)acetamide triflouroacetate] was 93%.

Consider `O=C(CCC1CCCC1)NC1CCCC(c2nc3ccccc3[nH]2)C1` (centres unmarked) [Example 54, N-[3-(1H-benzimidazol-2-yl)cyclohexyl]-3-cyclopentylpro-panamide HCl], for which the inhibition at 2 µM is 67%. Consider `O=C(N[C@@H]1CCC[C@H](c2nc3ccccc3[nH]2)C1)c1cc2ccc(Cl)cc2[nH]1` [Example 210, N-[(1R,3S)-3-(1H-benzimidazol-2-yl)cyclohexyl]-6-chloro-1H-indole-2-carboxamide triflouroacetate], for which the inhibition at 2 µM was 88%. Regarding `O=C(N[C@@H]1CCC[C@H](c2nc3ccccc3[nH]2)C1)c1cc2c(cn1)OCCO2` [Example 253, N-((1R,3S)-3-(1H-benzo[d]imidaz-ol-2-yl)cyclohexyl)-2,3-dihydro-[1,4]dioxino[2,3-c]pyridine-7-carboxamide], the inhibition at 2 µM amounted to 100%. Still for that read-out and setting: the value for `Cn1c(C23CCCC(NC(=O)c4ccc5c(c4)OCCO5)(C2)C3)nc2ccccc21` [Example 244, N-(5-(1-methyl-1H-benzo[d]imidaz-ol-2-yl)bicyclo[3.1.1]heptan-1-yl)-2,3-dihydrobenzo[b] [1,4]dioxine-6-carboxamide] was 66%; that for `Cn1cc(CN2CCCC2)cc1C(=O)NC1CCCC(c2nc3ccccc3[nH]2)C1` (centres unmarked) [Example 130, N-[3-(1H-benzimidazol-2-yl)cyclohexyl]-1-methyl-4-(pyrrolidin-1-ylmethyl)-1H-pyrrole-2-carboxamide triflouroacetate] was 84%; that for `O=C(Nc1cc(Cl)cc(Cl)c1)N[C@@H]1CCC[C@H](c2nc3ccccc3[nH]2)C1` [Example 227, 1-[(1R,3S)-3-(1H-benzimidazol-2-yl)cyclohexyl]-3-(3,5-dichlorophenyl) urea] was 115%.

For the compound `O=C(NC1CCCC(c2nc3ccccc3[nH]2)C1)c1cc(C2CC2)n[nH]1` (centres unmarked) [Example 114], the inhibition at 2 µM turned out to be 109%. Same read-out and setting: next, `N#Cc1ccc(NC(=O)NC23CCCC(c4nc5cc(C(F)(F)F)ccc5[nH]4)(C2)C3)cc1` [Example 261, 1-(4-cyanophenyl)-3-{5-[5-(trifluoromethyl)-1H-benzimidazol-2-yl]bicyclo[3.1.1]hept-1-yl}urea]: 78.8%; `Cn1c([C@H]2CCC[C@@H](NC(=O)c3ccc4c(c3)CCNC4)C2)nc2ccccc21` [Example 311, N-[(1R,3S)-3-(1-methyl-1H-benzimidazol-2-yl)cyclohexyl]-1,2,3,4-tetrahydroiso-quinoline-6-carboxamide HCl]: 100%.

With `CN1[C@H](C(=O)N[C@@H]2CCC[C@H](c3nc4ccccc4[nH]3)C2)C[C@@H]2CCCC[C@@H]21` [Example 268, (2S,3aS,7aS)-N-[(1R,3S)-3-(1H-benzimidazol-2-yl)cyclohexyl]-1-methyloctahy-dro-1H-indole-2-carboxamide HCl], the inhibition at 2 µM came out at 50.7%.

As to `O=C(NC12CCCC(c3nc4cc(C(F)(F)F)ccc4[nH]3)(C1)C2)c1ccc(C(=O)c2ccccc2)cc1` [Example 275, 4-benzoyl-N-{5-[5-(trifluoromethyl)-1H-benzimidazol-2-yl]bicyclo[3.1.1]hept-1-yl}benzamide], the inhibition at 2 µM was determined as 89%. The same measure, in the same setting: the value for `Cc1cccc2nc(C3CCCC(NC(=O)c4ccc5c(c4)OCCO5)C3)[nH]c12` (centres unmarked) [Example 79, N-[3-(7-methyl-1H-benzimidazol-2-yl)cyclohexyl]-2,3-dihydro-1,4-benzodioxine-6-carboxamide HCl] was 102%.

As for `COCCn1c([C@H]2CCC[C@@H](NC(=O)c3ccc4c(c3)OCCO4)C2)nc2ccccc21` [Example 76, N-{(1R,3S)-3-[1-(2-methoxyethyl)-1H-benzimidazol-2-yl]cyclohexyl}-2,3-dihydro-1,4-benzodioxine-6-carboxamide], the inhibition at 2 µM amounted to 101%.
